# Read-outs that look alike come from different tables or passages of the source.
# Columns and labels:
# CDK9/CycT1 = target: T1, CDK9/CycT1 (Homo sapiens, UniProt P50750); assay: CDK9/CycT1 high ATP kinase assay (TR-FRET, 2 mM ATP); format: biochemical; settings: 2 mM ATP (high ATP); median; read-out: CDK9/CyclinT1, 2 mM ATP (high ATP), IC50 (median)
# T1 construct: Recombinant full-length His-tagged human CDK9 and CycT1; purchased Life Technologies PV4131; host or cells: insect cells
# Summary of the method: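 Full-length His-tagged human CDK9/CycT1 (insect cell, ~0.5 μg/mL) preincubated 15 min at 22 °C with compound in Tris pH 8.0, MgCl2, DTT buffer before reaction with biotinylated peptide substrate at high ATP (2 mM).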
# [1] = tested on: CAL-120, human breast adenocarcinoma cells; assay: Proliferation assay CAL-120 (crystal violet, 4 days); format: cell-based; settings: CAL-120 cells, median, read-out: Prolif-CAL-120, IC50-[mol/l] (median)
# Summary of the method: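 CAL-120 or MDA-MB-231 cells grown 24 h, then exposed 4 days to compound (0.01–10 micromol/L, 0.1% DMSO). Crystal violet staining, absorbance at 595 nm, normalised to a zero-point plate (0%) and untreated cells (100%); IC50 by 4-parameter fit.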
# [2] = target: T2, CDK12 (nuclear staining in CAL-120 cells) (Homo sapiens, UniProt Q9NYV4); assay: CDK12 nuclear protein level: immunofluorescence/high content analysis (CAL-120); format: cell-based; settings: for DC50: CAL-120 cells, 24 h, immunofluorescence, 50% reduction of nuclear CDK12 staining intensity, median, read-out: CDK12 degradation IF, DC50- [mol/l] (median); for (IC50 CDK12 high ATP) to (Degradation DC50 CDK12) ratio: ratio of IC50 CDK12 high ATP kinase assay to DC50 CDK12 degradation (IF, CAL-120)
# T2 construct: endogenous in cells; host or cells: CAL-120 human breast cancer cells (DSMZ ACC 459)
# Summary of the method: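 CAL-120 cells were treated with compound for 24 h at 37 °C, fixed with PFA and immunostained for CDK12. Nuclear CDK12 intensity was quantified by automated image analysis and normalized to DMSO and control. DC50 is the concentration giving 50% reduction of nuclear staining.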
# T2 sequence (Q9NYV4 whole entry): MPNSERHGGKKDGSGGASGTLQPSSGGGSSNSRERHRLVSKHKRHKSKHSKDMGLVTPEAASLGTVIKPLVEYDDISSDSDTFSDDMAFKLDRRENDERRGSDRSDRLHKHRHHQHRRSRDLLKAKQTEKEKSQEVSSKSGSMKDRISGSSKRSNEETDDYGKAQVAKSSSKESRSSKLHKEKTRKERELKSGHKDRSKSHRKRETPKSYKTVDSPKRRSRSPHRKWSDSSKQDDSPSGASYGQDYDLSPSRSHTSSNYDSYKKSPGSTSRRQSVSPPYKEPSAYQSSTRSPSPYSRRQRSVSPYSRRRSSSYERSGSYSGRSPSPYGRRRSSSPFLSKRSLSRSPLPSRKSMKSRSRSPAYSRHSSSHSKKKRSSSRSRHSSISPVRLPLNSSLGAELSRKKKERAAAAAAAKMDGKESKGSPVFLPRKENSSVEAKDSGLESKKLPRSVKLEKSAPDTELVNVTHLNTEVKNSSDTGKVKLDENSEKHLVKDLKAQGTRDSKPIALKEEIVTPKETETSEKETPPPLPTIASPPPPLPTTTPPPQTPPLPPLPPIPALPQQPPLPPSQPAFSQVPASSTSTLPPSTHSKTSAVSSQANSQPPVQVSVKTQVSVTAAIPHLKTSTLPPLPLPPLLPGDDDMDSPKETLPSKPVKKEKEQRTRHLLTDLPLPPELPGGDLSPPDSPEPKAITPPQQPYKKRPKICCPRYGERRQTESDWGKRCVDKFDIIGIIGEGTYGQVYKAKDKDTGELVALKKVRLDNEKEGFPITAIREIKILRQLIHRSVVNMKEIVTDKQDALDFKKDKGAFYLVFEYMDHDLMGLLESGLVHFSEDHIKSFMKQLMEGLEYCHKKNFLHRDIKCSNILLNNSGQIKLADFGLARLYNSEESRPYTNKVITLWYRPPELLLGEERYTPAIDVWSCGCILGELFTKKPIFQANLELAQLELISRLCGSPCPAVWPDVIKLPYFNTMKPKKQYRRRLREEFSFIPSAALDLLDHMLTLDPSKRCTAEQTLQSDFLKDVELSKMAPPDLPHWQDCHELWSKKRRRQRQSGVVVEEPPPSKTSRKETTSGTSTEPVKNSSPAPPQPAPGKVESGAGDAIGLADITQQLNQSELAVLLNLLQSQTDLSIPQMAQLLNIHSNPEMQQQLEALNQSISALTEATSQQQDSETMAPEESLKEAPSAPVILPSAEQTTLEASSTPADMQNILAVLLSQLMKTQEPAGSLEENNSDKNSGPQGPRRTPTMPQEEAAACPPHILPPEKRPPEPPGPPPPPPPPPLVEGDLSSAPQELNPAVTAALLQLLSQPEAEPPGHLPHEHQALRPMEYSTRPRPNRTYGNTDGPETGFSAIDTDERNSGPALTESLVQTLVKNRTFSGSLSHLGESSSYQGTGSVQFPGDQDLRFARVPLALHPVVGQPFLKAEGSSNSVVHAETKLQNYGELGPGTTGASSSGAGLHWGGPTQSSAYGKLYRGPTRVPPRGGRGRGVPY
# T2 sequence (O75909 whole entry partner): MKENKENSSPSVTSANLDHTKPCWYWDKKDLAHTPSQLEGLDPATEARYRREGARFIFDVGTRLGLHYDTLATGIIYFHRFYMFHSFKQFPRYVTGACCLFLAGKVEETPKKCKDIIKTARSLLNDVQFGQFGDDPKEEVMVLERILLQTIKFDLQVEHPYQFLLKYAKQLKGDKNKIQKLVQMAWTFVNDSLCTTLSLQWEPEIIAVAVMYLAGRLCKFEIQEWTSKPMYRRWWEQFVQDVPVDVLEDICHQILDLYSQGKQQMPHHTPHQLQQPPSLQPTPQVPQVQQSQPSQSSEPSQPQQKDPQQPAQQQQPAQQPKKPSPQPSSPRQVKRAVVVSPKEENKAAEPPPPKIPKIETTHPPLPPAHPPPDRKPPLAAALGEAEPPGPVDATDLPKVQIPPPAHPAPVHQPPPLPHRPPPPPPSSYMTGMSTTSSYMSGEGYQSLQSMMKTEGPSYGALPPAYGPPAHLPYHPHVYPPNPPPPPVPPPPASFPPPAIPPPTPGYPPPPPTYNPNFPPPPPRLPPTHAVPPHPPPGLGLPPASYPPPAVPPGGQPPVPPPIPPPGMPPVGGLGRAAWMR
# T1 sequence (P50750 whole entry): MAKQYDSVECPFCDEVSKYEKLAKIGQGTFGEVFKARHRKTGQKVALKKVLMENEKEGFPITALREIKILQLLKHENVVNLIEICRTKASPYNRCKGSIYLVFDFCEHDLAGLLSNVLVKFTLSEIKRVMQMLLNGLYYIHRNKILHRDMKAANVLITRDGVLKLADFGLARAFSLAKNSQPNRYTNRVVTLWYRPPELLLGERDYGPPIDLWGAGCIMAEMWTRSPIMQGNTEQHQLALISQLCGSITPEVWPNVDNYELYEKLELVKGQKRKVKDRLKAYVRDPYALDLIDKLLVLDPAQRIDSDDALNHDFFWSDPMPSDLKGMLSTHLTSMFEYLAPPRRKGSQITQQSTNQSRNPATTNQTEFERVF
# T1 sequence (O60563 whole entry partner): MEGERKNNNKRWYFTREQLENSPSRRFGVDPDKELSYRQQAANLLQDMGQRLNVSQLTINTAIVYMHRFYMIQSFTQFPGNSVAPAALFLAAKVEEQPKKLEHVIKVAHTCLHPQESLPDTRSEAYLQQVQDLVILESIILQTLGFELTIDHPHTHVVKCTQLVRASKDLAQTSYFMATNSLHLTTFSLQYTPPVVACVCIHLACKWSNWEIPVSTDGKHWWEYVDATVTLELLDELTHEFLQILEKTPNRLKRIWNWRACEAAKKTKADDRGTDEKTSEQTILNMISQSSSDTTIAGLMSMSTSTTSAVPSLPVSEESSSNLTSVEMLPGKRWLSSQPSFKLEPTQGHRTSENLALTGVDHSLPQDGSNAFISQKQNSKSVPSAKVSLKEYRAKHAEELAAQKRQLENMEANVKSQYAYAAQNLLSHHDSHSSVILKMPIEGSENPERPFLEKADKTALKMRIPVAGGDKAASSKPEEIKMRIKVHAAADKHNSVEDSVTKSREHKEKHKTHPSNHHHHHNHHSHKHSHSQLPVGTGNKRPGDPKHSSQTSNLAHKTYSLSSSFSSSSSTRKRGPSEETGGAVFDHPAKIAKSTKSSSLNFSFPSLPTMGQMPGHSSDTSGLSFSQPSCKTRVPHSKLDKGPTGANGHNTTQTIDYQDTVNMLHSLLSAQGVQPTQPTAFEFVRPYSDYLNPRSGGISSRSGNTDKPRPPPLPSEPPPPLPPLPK
SMILES,IC50 (CDK9/CycT1) [nM],"IC50 ([1]; Homo sapiens, CAL-120, 96 h) [nM]",DC50 [2] [nM],(IC50 CDK12 high ATP) to (Degradation DC50 CDK12) ratio [2],IC50 [1] [nM]
"CN1CCN(c2nc(NCc3nc4c(F)c(F)ccc4[nH]3)n3ncc(Cl)c3n2)CC1 [Example 358, 8-chloro-N-[(4,5-difluoro-1H-benzimidazol-2-yl)methyl]-2-(4-methylpiperazin-1-yl)pyrazolo[1,5-a][1,3,5]triazin-4-amine]",> 20000,4.05,5.33,2182,
"CC[C@H](COC)Nc1nc(NCc2nc3ccccc3[nH]2)n2ncc(Br)c2n1 [Example 369, N4-[(1H-benzimidazol-2-yl)methyl]-8-bromo-N2-[(2R)-1-methoxybutan-2-yl]pyrazolo[1,5-a][1,3,5]triazine-2,4-diamine]",> 20000,140,20.6,>970,
"Brc1cnn2c(NCc3nc4ccccc4[nH]3)nc(N3CCN4CCC3C4)nc12 (centres unmarked) [Example 350, N-[(1H-benzimidazol-2-yl)methyl]-8-bromo-2-(1,4-diazabicyclo[3.2.1]octan-4-yl)pyrazolo[1,5-a][1,3,5]triazin-4-amine]",> 20000,4.35,6.55,1190,
"FC(F)(F)Oc1ccc2[nH]c(CNc3nc(N4C[C@H]5CC[C@@H](C4)N5)nc4c(Br)cnn34)nc2c1 [Example 382, 8-bromo-2-[(1R,5S)-3,8-diazabicyclo[3.2.1]octan-3-yl]-N-{[5-(trifluoromethoxy)-1H-benzimidazol-2-yl]methyl}pyrazolo[1,5-a][1,3,5]triazin-4-amine]",> 20000,12.4,79.7,10,
"CN(CC(C)(C)O)c1nc(NCc2nc3c(F)cccc3[nH]2)n2ncc(Cl)c2n1 [Example 366, 1-[(8-chloro-4-{[(4-fluoro-1H-benzimidazol-2-yl)methyl]amino}pyrazolo[1,5-a][1,3,5]triazin-2-yl)(methyl)amino]-2-methylpropan-2-ol]",> 20000,31.3,9.52,190,
"CN1CCN(c2nc(NCc3nc4cc(Cl)c(Cl)cc4[nH]3)n3ncc(Br)c3n2)CC1 [Example 330, 8-bromo-N-[(5,6-dichloro-1H-benzimidazol-2-yl)methyl]-2-(4-methylpiperazin-1-yl)pyrazolo[1,5-a][1,3,5]triazin-4-amine]",> 20000,2.44,2.89,1601,
"Fc1cc2nc(CNc3nc(N4CC5CCC(C4)N5)nc4c(C5CC5)cnn34)[nH]c2cc1F [Example 325, 8-cyclopropyl-2-(3,8-diazabicyclo[3.2.1]octan-3-yl)-N-[(5,6-difluoro-1H-benzimidazol-2-yl)methyl]pyrazolo[1,5-a][1,5]triazin-4-amine]",> 20000,1.48,1.88,1890,
"CN1C2CCC1CN(c1nc(NCc3nc4c(F)cccc4[nH]3)n3ncc(C(F)(F)F)c3n1)C2 [Example 384, N-[(4-fluoro-1H-benzimidazol-2-yl)methyl]-2-(8-methyl-3,8-diazabicyclo[3.2.1]octan-3-yl)-8-(trifluoromethyl)pyrazolo[1,5-a][1,3,5]triazin-4-amine]",> 20000,3.48,11,735,
"Brc1cnn2c(NCc3nc4ccccc4[nH]3)nc(N3CCN4CCC3CC4)nc12 [Example 349, N-[(1H-benzimidazol-2-yl)methyl]-8-bromo-2-(1,4-diazabicyclo[3.2.2]nonan-4-yl)pyrazolo[1,5-a][1,3,5]triazin-4-amine]",> 20000,3.76,9.89,877,
"Fc1c(Cl)ccc2[nH]c(CNc3nc(N4CC5CCC(C4)N5)nc4c(C5CC5)cnn34)nc12 [Example 379, N-[(5-chloro-4-fluoro-1H-benzimidazol-2-yl)methyl]-8-cyclopropyl-2-(3,8-diazabicyclo[3.2.1]octan-3-yl)pyrazolo[1,5-a][1,3,5]triazin-4-amine]",11300,1.71,4.35,121,
"Cc1cc2nc(CNc3nc(N(C)CC(C)(C)O)nc4c(Br)cnn34)[nH]c2cc1C [Example 343, 1-[(8-bromo-4-{[(5,6-dimethyl-1H-benzimidazol-2-yl)methyl]amino}pyrazolo[1,5-a][1,3,5]triazin-2-yl)(methyl)amino]-2-methylpropan-2-ol]",4270,1.82,3.56,53,
"Clc1cc2nc(CNc3nc(N4CC5CCC(C4)N5)nc4c(Br)cnn34)[nH]c2cc1Cl [Example 334, 8-bromo-2-(3,8-diazabicyclo[3.2.1]octan-3-yl)-N-[(5,6-dichloro-1H-benzimidazol-2-yl)methyl]pyrazolo[1,5-a][1,3,5]triazin-4-amine]",8140,1.72,33.5,60,

# The next lines start with the values.
IC50 (CDK9/CycT1) [nM],"IC50 ([1]; Homo sapiens, CAL-120, 96 h) [nM]",DC50 [2] [nM],(IC50 CDK12 high ATP) to (Degradation DC50 CDK12) ratio [2],IC50 [1] [nM],SMILES
> 20000,7.97,4.57,266,,"FC(F)(F)c1ccc2[nH]c(CNc3nc(N4CCOCC4)nc4c(C5CC5)cnn34)nc2c1 [Example 322, 8-cyclopropyl-2-(morpholin-4-yl)-N-{[5-(trifluoromethyl)-1H-benzimidazol-2-yl]methyl}pyrazolo[1,5-a][1,3,5]triazin-4-amine]"
3930,2.94,2.44,110,,"Fc1c(Cl)ccc2[nH]c(CNc3nc(N4CCOCC4)nc4c(Br)cnn34)nc12 [Example 372, 8-bromo-N-[(5-chloro-4-fluoro-1H-benzimidazol-2-yl)methyl]-2-(morpholin-4-yl)pyrazolo[1,5-a][1,3,5]triazin-4-amine]"
13800,6.11,7.38,73,,"Clc1cc2nc(CNc3nc(N4CCOCC4)nc4c(Br)cnn34)[nH]c2cc1Cl [Example 329, 8-bromo-N-[(5,6-dichloro-1H-benzimidazol-2-yl)methyl]-2-(morpholin-4-yl)pyrazolo[1,5-a][1,3,5]triazin-4-amine]"
> 20000,4.24,4.28,130,,"Cc1cc2nc(CNc3nc(N4CCOCC4)nc4c(C5CC5)cnn34)[nH]c2cc1C [Example 320, 8-cyclopropyl-N-[(5,6-dimethyl-1H-benzimidazol-2-yl)methyl]-2-(morpholin-4-yl)pyrazolo[1,5-a][1,3,5]triazin-4-amine]"
> 20000,,6.98,960,8.31,"Brc1cnn2c(NCc3nc4ccccc4[nH]3)nc(N3C[C@H]4CC[C@@H]3CO4)nc12 (single isomer, unassigned; enantiomer 2) [Example 391, N-[(1H-benzimidazol-2-yl)methyl]-8-bromo-2-{[1R or S-(1R*,4R*)]-2-oxa-5-azabicyclo[2.2.2]octan-5-yl}pyrazolo[1,5-a][1,3,5]triazin-4-amine (Enantiomer 2)]"
> 20000,29.8,19.2,>1041,,"CN1CCCN(c2nc(NCc3nc4ccccc4[nH]3)n3ncc(Br)c3n2)CC1 [Example 390, N-[(1H-benzimidazol-2-yl)methyl]-8-bromo-2-(4-methyl-1,4-diazepan-1-yl)pyrazolo[1,5-a][1,3,5]triazin-4-amine]"
10000,4.33,3.9,295,,Fc1ccc2[nH]c(CNc3nc(N4CCOCC4)nc4c(Cl)cnn34)nc2c1F [Example 357]
> 20000,11.4,5.79,859,,"Brc1cnn2c(NCc3nc4ccccc4[nH]3)nc(N3C[C@H]4CC[C@@H]3CO4)nc12 (single isomer, unassigned) [Example 383, N-[(1H-benzimidazol-2-yl)methyl]-8-bromo-2-{[1R or S-(1R*,4R*)]-2-oxa-5-azabicyclo[2.2.2]octan-5-yl}pyrazolo[1,5-a][1,3,5]triazin-4-amine]"

# From patent US20230117034A1, “PYRAZOLOTRIAZINES” (Bayer Aktiengesellschaft, priority 2019, published 2023)
